Data taken from US6171866A, “Luminescence indicator for determining calcium ions” (AVL Medical Instruments, priority 1998, dated 2001).

Test: Determination of the Kd values of ionophores from UV-absorption Ca^2+ titration curves
Format: binding
Conditions: aqueous solution, 30 mmol/l tris/HCl buffer, CO2-free, pH 7.4; absorption at 248 nm; 0.00001 to 0.5 mol/l Ca^2+; calculated from found pKd
Method: wherein, at a given ionic strength and temperature, the dissociation constant (Kd) is given by Equation 2, [formula]
The PKd value (Equation 3) is the negative common logarithm of the dissociation constant:
The absorption values in dependence on the Ca^2+ concentration were measured using a commercial photometer, at an absorption wavelength of 248 nm. The resulting titration curves were normalized to the value Amax =1 at a Ca^2+ concentration of 0.00001 mol/l using Equation 4 (see below).
The Kd values of the ionophores were determined from the measured absorption values of the Ca^2+ -titration curves according to Equation 3 (see above) and Equation 4 [formula]
wherein Ax is the normalized absorption value at the given Ca^2+ concentration, Amax is the absorption value at 0.00001 mol/l Ca^2+ and pKd has the meaning indicated in Equation 3.
They were determined from the found pKd values by means of Equation 3.

SMILES | Kd [mM]
COCCN(CCN(CC(=O)O)CC(=O)O)c1ccccc1OC [Ionophore X2, Potassium N-[2-(N'-methoxyethyl-N'-(2-methoxyphenyl)aminoethyl)]-imino-N,N-diacetate] | 0.33
CCOCCN(CCN(CC(=O)O)CC(=O)O)c1ccccc1OC [Ionophore X3, Potassium N-[2-(N'-ethoxyethyl-N'-(2-methoxyphenyl)aminoethyl)]-imino-N,N-diacetate] | 1.04
CCCCN(CCN(CC(=O)O)CC(=O)O)c1ccccc1OC [Ionophore X4, Potassium N-[2-(N'-butyl-N'-(2-methoxyphenyl)aminoethyl)]-imino-N,N-diacetate] | 9.14
COc1ccccc1N(CCOc1ccccc1)CCN(CC(=O)O)CC(=O)O [Ionophore X5, Potassium N-[2-(N'-phenoxyethyl-N'-(2-methoxyphenyl)aminoethyl)]-imino-N,N-diacetate] | 6.96
COc1ccccc1N(CCOCC(=O)O)CCOCC(=O)O [Ionophore X6, Potassium-o-anisidine-N,N-diethoxyacetate] | 0.2
CCOc1ccccc1N(CCOCC(=O)O)CCOCC(=O)O [Ionophore X7, Potassium o-phenetidine-N,N-diethoxyacetate] | 1.09
COc1ccc(Cl)cc1N(CCOCC(=O)O)CCOCC(=O)O [Ionophore X8, Potassium 5-chloro-o-anisidine-N,N-diethoxyacetate] | 0.72
COCCN(CCOC)c1ccccc1OCCN(CC(=O)O)CC(=O)O [Ionophore X9, Potassium N-[2-(N',N'-dimethoxyethyl)aminophenoxyethyl]imino-N,N-diacetate] | 6.16
